Drawing on ChEMBL document CHEMBL4616618, “Design and synthesis of a folate-receptor targeted diazepine-ring-opened pyrrolobenzodiazepine prodrug conjugate” (Bioorg Med Chem Lett, 2020), this text covers IC50 and Activity for 4 molecules.

Structures are written as SMILES. The source made the active and inactive calls. No cut-off for these calls is given here.

The nature of series [1]: Antagonist activity at folate receptor in human KB cells after 2 hrs. The series is classed as cell-based.
The nature of series [2]: Antagonist activity at folate receptor in human KB cells after 2 hrs in presence of 100 uM folic acid. In kind it is cell-based.
The subject of series [3] is KB. The series is described as follows: Antitumor activity against FR-positive human KB cells xenografted in nu/nu mouse assessed as reduction in tumor growth at 2 umol/kg administered as single dose for 1 week. In kind it is functional, cell-based.
Series [4] is described as follows: Toxicity in mouse xenografted with FR-positive human KB cells assessed as body weight loss at 2 umol/kg administered as single dose for 1 week. The series is classed as cell-based. To be noted: in vivo, 168 h.
Series [5] in a line: Toxicity in mouse xenografted with FR-positive human KB cells assessed as tissue degeneration at 300 nmol/kg administered as single dose for 1 week. In kind it is cell-based. As to conditions: in vivo, 168 h.
A short description of series [6]: Toxicity in mouse xenografted with FR-positive human KB cells assessed as body weight loss at 300 nmol/kg administered as single dose and measured up to 96 days post tumor implantation. In kind it is cell-based. To be noted: in vivo, 2304 h.
Series [7] has as its system KB. The series can be described thus: Antitumor activity against FR-positive human KB cells xenografted in nu/nu mouse at 300 nmol/kg administered as single dose for 1 week. The series is classed as functional, cell-based.

As for `C=C1C[C@@H](C2OCCN2C(=O)OCCSSC[C@@H](NC(=O)[C@H](CCC(=O)NC[C@H](O)[C@@H](O)[C@H](O)[C@H](O)CO)NC(=O)[C@@H](CCC(=O)O)NC(=O)[C@H](CCC(=O)NC[C@H](O)[C@@H](O)[C@H](O)[C@H](O)CO)NC(=O)[C@@H](CCC(=O)O)NC(=O)[C@H](CCC(=O)NC[C@H](O)[C@@H](O)[C@H](O)[C@H](O)CO)NC(=O)CC[C@H](NC(=O)c2ccc(NCc3cnc4nc(N)[nH]c(=O)c4n3)cc2)C(=O)O)C(=O)O)N(C(=O)c2cc(OC)c(OCCCCCOc3cc(N)c(C(=O)N4CC(=C)C[C@H]4C4OCCN4C(=O)OCCSSc4ccccn4)cc3OC)cc2N)C1` (some centres undefined), the IC50 in series [1] amounted to 1.31 nM; in series [2], 184 nM. For the same molecule, in the series on KB [3], the outcome was Active.
Regarding `C=C1C[C@@H](C2OCCN2C(=O)OCCSSC[C@@H](NC(=O)[C@H](CCC(=O)NC[C@H](O)[C@@H](O)[C@H](O)[C@H](O)CO)NC(=O)[C@@H](CCC(=O)O)NC(=O)[C@H](CCC(=O)NC[C@H](O)[C@@H](O)[C@H](O)[C@H](O)CO)NC(=O)[C@@H](CCC(=O)O)NC(=O)[C@H](CCC(=O)NC[C@H](O)[C@@H](O)[C@H](O)[C@H](O)CO)NC(=O)CC[C@H](NC(=O)c2ccc(NCc3cnc4nc(N)[nH]c(=O)c4n3)cc2)C(=O)O)C(=O)O)N(C(=O)c2cc(OC)c(OCCCCCOc3ccc(-c4nc5ccc(-c6nc7cc(N8CCN(C)CC8)ccc7[nH]6)cc5[nH]4)cc3)cc2N)C1` (some centres undefined), the half-inhibitory concentration (IC50) in series [1] is 0.658 nM; in series [2] it was 84.3 nM. The outcome with KB [3] was Active. Further, the Activity entry in series [4] is listed as “Toxic”.
Turning to `C=C1C[C@H]2C(=O)Nc3cc(OCCCCCOc4cc(N)c(C(=O)N5CC(=C)C[C@H]5C5OCCN5C(=O)OCCSSC[C@H](NC(=O)[C@H](CC(=O)O)NC(=O)[C@H](CC(=O)O)NC(=O)[C@H](CCCNC(=N)N)NC(=O)[C@H](CC(=O)O)NC(=O)CC[C@H](NC(=O)c5ccc(NCc6cnc7nc(N)[nH]c(=O)c7n6)cc5)C(=O)O)C(=O)O)cc4OC)c(OC)cc3C(=O)N2C1` (some centres undefined), the results for the IC50 in series [1] and in series [2] were 1.12 nM and 696 nM, respectively.
For `C=C1C[C@H]2C=Nc3cc(OCCCCCOc4cc(N)c(C(=O)N5CC(=C)C[C@H]5C5OCCN5C(=O)OCC(C)(C)SSCCC(=O)NCCNC(=O)CCOCCOCCOCCOCCNC(=O)CCN5C(=O)CC(SC[C@H](NC(=O)[C@H](CC(=O)O)NC(=O)[C@H](CC(=O)O)NC(=O)[C@H](CCCNC(=N)N)NC(=O)[C@H](CC(=O)O)NC(=O)CC[C@H](NC(=O)c6ccc(NCc7cnc8nc(N)[nH]c(=O)c8n7)cc6)C(=O)O)C(=O)O)C5=O)cc4OC)c(OC)cc3C(=O)N2C1` (some centres undefined), the Activity result in series [5] and in series [6] was “Toxic” throughout. The IC50 came out at 0.0522 nM in series [1] and 3.78 nM in series [2]. Further, the result in the series on KB [7] was Active.
